The values below come from patent US20210009551A1, “COMPOUNDS AND METHODS FOR TREATING FIBROSIS OR CANCER” (THE REGENTS OF THE UNIVERSITY OF CALIFORNIA, priority 2016, published 2021).

The term pIC50 denotes −log10 of the IC50, conventionally taken in molar units. Higher therefore signals a small IC50.

pIC50: −log10 of the molar value. Several values for one entry are separate records, joined by “and”; a condition that tells them apart may be missing. Equal values may be shown once. Entries after “also recorded” stand apart in the source; their conditions may differ.

The target of data set [1] is T1, human TGFbeta receptor I and II (Homo sapiens, UniProt P36897).
T1 construct: expressed in transfected cells; host or cells: A549 cells, anti-Flag immunoprecipitate on Protein G-agarose
T1 sequence (P36897 34-503): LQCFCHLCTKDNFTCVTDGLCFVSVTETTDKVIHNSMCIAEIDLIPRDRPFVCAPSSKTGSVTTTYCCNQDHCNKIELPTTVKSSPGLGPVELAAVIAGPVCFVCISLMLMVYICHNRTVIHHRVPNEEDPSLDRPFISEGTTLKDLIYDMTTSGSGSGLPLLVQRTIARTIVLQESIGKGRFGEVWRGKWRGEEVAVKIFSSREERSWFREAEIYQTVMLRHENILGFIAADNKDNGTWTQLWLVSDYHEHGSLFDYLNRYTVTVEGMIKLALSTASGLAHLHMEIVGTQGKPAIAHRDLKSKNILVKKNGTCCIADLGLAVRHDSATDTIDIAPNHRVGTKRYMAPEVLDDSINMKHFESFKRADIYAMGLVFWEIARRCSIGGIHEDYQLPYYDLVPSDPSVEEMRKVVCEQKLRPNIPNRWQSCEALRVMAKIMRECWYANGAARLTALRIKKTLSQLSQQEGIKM
Kind of data set: In vitro TGFβ receptor kinase assay (pull down). The conditions noted are these: 20 μM. It counts as biochemical. On the procedure:
In vitro TGFβ receptor kinase assay. A549 cells were transiently co-transfected with Flag-tagged human TGFbeta receptor I and II. After 24 hours the cells were lysed in 1% NP40 lysis buffer (1% NP40, 20 mM Tris pH7.6, 200 mM NaCl plus protease inhibitor cocktail, 10 mM NaF, 1 mM Na3VO4), and the type I and II receptors were immunoprecipitated using anti-Flag antibody and Protein G-agarose (Roche). The beads were washed three times with kinase buffer (0.01% Triton X-100, 25 mM HEPES, pH 7.4, 2 mM MnCl2, 10 mM MgCl2, 20 μM DTT, 0.1 mM NaF, 0.1 mM Na3 VO4). The kinase reactions were initiated by addition of 0.1 mM ATP in the presence or absence of inhibitors or lysate from A549 cells pre-treated with corilagin. The kinase reactions were terminated by addition of an equal volume of 2×sample buffer. The TGFbeta receptor kinase activity was analyzed by SDS-PAGE and immunoblotting with anti-phosphotyrosine monoclonal antibody 4G10 (EMD Millipore) and anti-Flag antibody.

Data set [2] concerns C57BL/6 mice, intratracheal bleomycin. Briefly: Bleomycin fibrosis model. It counts as in vivo.
Description: For histological assessment of lung collagen, frozen sections of the left lung were stained using Masson's Trichrome stain kit (American MasterTech, Lodi, Calif., USA).
Bleomycin fibrosis model. Eight-week old C57BL/6 mice were intratracheally instilled with saline or 1.9 units/kg of bleomycin (Sigma-Aldrich). Mice were implanted with osmotic pumps loaded with ellagic acid salt (24 mg/kg/day, Day 10-Day 17), fed with red raspberry diet (Day 0-Day 21), or gavaged with corilagin (100 mg/kg, Day 10-Day 21). Controls were treated with control pump, control diet, or vehicle in the same formulation. The lungs were lavaged and followed by OCT embedding for imaging or snap freezing in liquid nitrogen for protein extraction or hydroxyproline assay.
Collagen content Lung or aorta collagen content was evaluated using hydroxyproline assay. Briefly, whole left lung tissue or aorta was hydrolyzed in 1 ml 12N HCl at 110° C. for 24 h and the hydroxyproline was detected by incubating with Chloramine T and p-dimethylaminobenzaldehyde and the absorbance was measured at 550 nm. Each sample was run in triplicate. Collagen content in lung or aorta tissues was expressed as micrograms of collagen per lung or aorta and was converted from micrograms of hydroxyproline.
A further data set can be described thus: Solubility (statement). It is filed as physicochemical.
The test system of data set [3] is TGFβ1-induced epithelial-mesenchymal transition (EMT) in A549 adenocarcinoma cells. Kind of data set: TGFβ1-induced EMT in A549 cells (image-based screen, immunoblot). It is filed as cell-based. The conditions noted are these: catechins 1 and 10 μM, 48 h. How it is done:
High throughput screen and high content imaging analysis. A549 cell-based screening of inhibitors to TGFβ1-induced EMT from a bioactive small molecule library was performed in 384-well plate format and the images were captured and analyzed using GE IN Cell 2000 as described previously^16.
(§1) Immunoblot. Pulverized tissue and cells were lysed in RIP A buffer (150 mM NaCl, 50 mM Tris, pH 8.0, 1% Triton X-100, 0.5% sodium deoxycholate, 0.1% SDS, supplemented with protease and phosphatase inhibitors) and analyzed by immunoblotting. Densitometry was quantified using NIH Imaged software.
On the technique in general: Immunoblotting shows a protein as a band on a membrane.

In another data set the target is T2, human LOXL2 (Homo sapiens, UniProt Q9Y4K0).
T2 sequence (Q9Y4K0 26-774): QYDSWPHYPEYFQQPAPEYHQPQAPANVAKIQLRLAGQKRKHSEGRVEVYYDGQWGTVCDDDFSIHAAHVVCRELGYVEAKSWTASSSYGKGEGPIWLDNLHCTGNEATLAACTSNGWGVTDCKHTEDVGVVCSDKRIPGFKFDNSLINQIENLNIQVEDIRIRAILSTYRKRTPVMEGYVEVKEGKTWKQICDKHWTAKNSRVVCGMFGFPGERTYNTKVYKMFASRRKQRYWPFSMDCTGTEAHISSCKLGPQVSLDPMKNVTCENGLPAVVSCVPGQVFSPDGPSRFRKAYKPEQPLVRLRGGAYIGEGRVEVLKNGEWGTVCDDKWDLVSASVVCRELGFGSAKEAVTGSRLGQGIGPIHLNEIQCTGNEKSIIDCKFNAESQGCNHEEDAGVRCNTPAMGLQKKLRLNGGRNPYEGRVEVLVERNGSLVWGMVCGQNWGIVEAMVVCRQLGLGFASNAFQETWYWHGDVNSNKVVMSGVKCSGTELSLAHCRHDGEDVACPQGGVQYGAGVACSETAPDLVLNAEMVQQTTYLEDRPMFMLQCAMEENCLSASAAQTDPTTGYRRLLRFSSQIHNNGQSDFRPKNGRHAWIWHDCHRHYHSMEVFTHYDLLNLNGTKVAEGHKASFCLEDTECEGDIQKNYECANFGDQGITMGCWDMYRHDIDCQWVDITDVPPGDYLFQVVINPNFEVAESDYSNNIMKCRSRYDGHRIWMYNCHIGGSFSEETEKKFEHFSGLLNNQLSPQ
Briefly: Collagen crosslinking induced by recombinant LOXL2 in lung fibroblasts (Sircol assay). The conditions noted are these: primary human lung fibroblasts, 7 days. It is filed as cell-based. How it is done:
Preparation of insoluble cross-linked collagen. Fibroblasts were cultured on 10 cm dish until confluent. The medium was then changed to Dulbecco's modified Eagle's medium (DMEM) containing 5% FBS, 100 μM L-ascorbic acid with 500 kDa Dextran Sulfate at 100 μg/ml, and 50 ng/ml recombinant human LOXL2 (rhLOXL2) for 7 days^21,22. The cell layer was extracted with 0.5 M acetic acid and 0.1 mg/ml pepsin overnight at 4° C. The leftover insoluble fraction was further extracted and the insoluble cross-linked collagen measured using Sircol Insoluble Collagen Assay kit according to manufacture's instruction.

Data set [4] has as its system TGFβ1 signaling (p-smad3) in A549 cells. Briefly: TGFβ1-induced p-smad generation in cells (immunoblot). The conditions noted are these: 0.5-10 μM. It is filed as cell-based. On the procedure: as §1
Data set [5] addresses T3, ALK5/TGFβRI catalytic domain (Homo sapiens, UniProt P36897).
T3 construct: ALK5/TGFβRI kinase assays using purified catalytic domain was performed
T3 sequence (P36897 205-495 limits assumed): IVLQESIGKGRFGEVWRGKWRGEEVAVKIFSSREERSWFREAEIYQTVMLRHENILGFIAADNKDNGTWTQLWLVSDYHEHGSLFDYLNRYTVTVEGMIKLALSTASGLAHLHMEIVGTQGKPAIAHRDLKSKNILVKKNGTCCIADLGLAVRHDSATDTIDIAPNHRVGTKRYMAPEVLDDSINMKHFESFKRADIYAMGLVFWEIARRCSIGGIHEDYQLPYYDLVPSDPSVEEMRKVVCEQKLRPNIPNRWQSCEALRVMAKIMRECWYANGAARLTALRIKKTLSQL
Kind of data set: ALK5/TGFβRI catalytic domain kinase assay. It counts as biochemical. How it is done: ALK5/TGFβRI catalytic domain kinase assay. ALK5/TGFβRI kinase assays using purified catalytic domain was performed. The reaction buffer contains 20 mM Hepes (pH 7.5), 10 mM MgCl2, 1 mM EGTA, 0.02% Brij35, 0.02 mg/ml BSA, 0.1 mM Na3VO4, 2 mM DTT, and 200 μM NAC. In brief, ten 3-fold series dilutions of 3Abd and 2Abd starting at 100 μM was delivered into kinase reaction mixture with kinase, cofactors, and substrate. After 20 min incubation at room temperature, ^33P-ATP was delivered into the mixture to initiate the reaction. Kinase activity was detected 2 h later by P81 filter-binding method.

Turning to `Oc1cccc(Cl)c1O` [3 Cc, 3-chlorocatechol], the “activity in a pull down kinase assay from cells overexpressing TGFβRI” value in data set [1] was “not”.

Turning to `O=c1oc2c(O)c(O)cc3c(=O)oc4c(O)c(O)cc1c4c23` [EA, Ellagic acid], in data set [2] (EA chow day 21, EA pump day 17), the “survival after intratracheal bleomycin” value is “improve survival”. In addition, the “collagen accumulation after intratracheal bleomycin” value in data set [2] (ad libitum chow of 2% w/w raspberry extract rich in EA and EA precursors) is given as “substantially block”. In addition, in “Solubility (statement)”, the solubility result was “poorly soluble”.

For `Oc1cc(O)c2c(c1)O[C@H](c1ccc(O)c(O)c1)[C@H](O)C2` [EC, epicatechin], the “inhibition of snail 1 and fibronectin in TGFβ1 stimulated A549 cells” value in data set [3] is on record as “no activity”.

`Oc1cc(O)c2c(c1)O[C@H](c1cc(O)c(O)c(O)c1)[C@H](O)C2` [EGC, epigallocatechin]: the “inhibition of snail 1 and fibronectin in TGFβ1 stimulated A549 cells” value in data set [3] is listed as “potent inhibitor”.

Regarding `CC(=O)N[C@@H](CS)C(=O)O` [NAC, N-acetylcysteine], the “effect on collagen crosslinking induced by recombinant LOXL2” value at human LOXL2 is recorded as “no effect”.

On to `NC(=O)c1ccc(-c2nc(-c3ccc4c(c3)OCO4)c(-c3ccccn3)[nH]2)cc1` [SB431542], for which the “effect on collagen crosslinking induced by recombinant LOXL2” value at human LOXL2 is reported as “no effect”.

Turning to `Nc1c(O)cccc1O` [Target 2Abd, 2-aminobenzene-1,3-diol], the “inhibition of TGFβ1-induced p-smad3 and snail 1 without pre-incubation and regardless of LOXL2 expression” value in data set [4] is “not”. Further, the “direct inhibition of TGFβRI kinase activity” value in data set [5] is “not”.

`Nc1cccc(O)c1O` [Target 3Abd, 3-aminobenzene-1,2-diol]: the “inhibition of TGFβ1-induced p-smad3 and snail 1 without pre-incubation and regardless of LOXL2 expression” value in data set [4] is listed as “potent inhibitor”. In addition, the “direct inhibition of TGFβRI kinase activity” value in data set [5] is given as “directly inhibit; also recorded: directly blocked”. Besides, in data set [5] (ten doses starting from 100 μM, 33P-ATP), the pIC50 is ~5.52 and 5.52. Further, the “activity in a pull down kinase assay from cells overexpressing TGFβRI” value in data set [1] is recorded as “blocked activity”.

Regarding `Nc1ccc(O)c(O)c1` [Target 4Abd, 4-aminobenzene-1,2-diol], in data set [4], the “inhibition of TGFβ1-induced p-smad3 and snail 1 without pre-incubation and regardless of LOXL2 expression” value is listed as “not”.
